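1) Cells in 96-well plates. 2) Compound, 48 h, 5 concentrations. 3) Linear interpolation between surrounding doses. 4) Unreached endpoint = highest concentration. GI50: concentration for 50% inhibition of growth.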 Activity calls are given as the source filed them. Rule as the data show it: active = GI50 up to about 1.1 µM and inactive = higher.
Columns and labels:
Assay in all cases: inhibition of tumour cell growth, NCI panel, 48 h
786-0 = tested on: 786-0
A498 = tested on: A498
A549 = tested on: A549
ACHN = tested on: ACHN
DU-145 = tested on: DU-145
EKVX = tested on: EKVX
HCT-116 = tested on: HCT-116
HCT-15 = tested on: HCT-15
HL-60 = tested on: HL-60
HOP-62 = tested on: HOP-62
HOP-92 = tested on: HOP-92
HT-29 = tested on: HT-29
IGROV-1 = tested on: IGROV-1
K562 = tested on: K562
KM12 = tested on: KM12
LOX IMVI = tested on: LOX IMVI
M14 = tested on: M14
MCF7 = tested on: MCF7
MDA-MB-231 = tested on: MDA-MB-231
MDA-MB-435 = tested on: MDA-MB-435
MOLT-4 = tested on: MOLT-4
NCI-H226 = tested on: NCI-H226
NCI-H460 = tested on: NCI-H460
NCI-H522 = tested on: NCI-H522
NCI/ADR-RES = tested on: NCI/ADR-RES
OVCAR-3 = tested on: OVCAR-3
OVCAR-5 = tested on: OVCAR-5
OVCAR-8 = tested on: OVCAR-8
PC-3 = tested on: PC-3
RPMI-8226 = tested on: RPMI-8226
SF-268 = tested on: SF-268
SF-295 = tested on: SF-295
SF-539 = tested on: SF-539
SK-MEL-28 = tested on: SK-MEL-28
SK-MEL-2 = tested on: SK-MEL-2
SK-OV-3 = tested on: SK-OV-3
SN12C = tested on: SN12C
SNB-19 = tested on: SNB-19
SNB-75 = tested on: SNB-75
SR = tested on: SR
SW-620 = tested on: SW-620
T47D = tested on: T47D
TK-10 = tested on: TK-10
U-251 = tested on: U-251
UACC-257 = tested on: UACC-257
UACC-62 = tested on: UACC-62
UO-31 = tested on: UO-31
CAKI-1 = tested on: CAKI-1
CCRF-CEM = tested on: CCRF-CEM
COLO 205 = tested on: COLO 205
NCI-H23 = tested on: NCI-H23
OVCAR-4 = tested on: OVCAR-4
RXF 393 = tested on: RXF 393
HCC 2998 = tested on: HCC 2998
Hs-578T = tested on: Hs-578T
Malme-3M = tested on: Malme-3M
SK-MEL-5 = tested on: SK-MEL-5

In the case of `COc1cc(C2C3C=CC=C4CC=CC(=C43)C3CCC(=O)N32)cc(OC)c1OC` (configuration not stated), the GI50 (786-0) is reported as > 100 µM (inactive), the GI50 (A498) is reported as > 100 µM (inactive) and the GI50 (A549) is reported as 99.1 µM (inactive). The GI50 (ACHN) was > 100 µM (inactive), the GI50 (DU-145) was > 100 µM (inactive) and the GI50 (EKVX) was > 100 µM (inactive). For the same molecule, the GI50 (HCT-116) was 94.8 µM (inactive), the GI50 (HCT-15) was greater than 100 µM and the GI50 (HL-60) was 64.1 µM (inactive). The GI50 (HOP-62) was > 100 µM (inactive), the GI50 (HOP-92) was 85.9 µM (inactive) and the GI50 (HT-29) was 61.5 µM (inactive). For the same molecule, the GI50 (IGROV-1) was 68.4 µM (inactive), the GI50 (K562) was > 100 µM (inactive) and the GI50 (KM12) was > 100 µM (inactive). For the same molecule, the GI50 (LOX IMVI) was > 100 µM (inactive), the GI50 (M14) was > 100 µM (inactive) and the GI50 (MCF7) was > 100 µM (inactive). The GI50 (MDA-MB-231) was > 100 µM (inactive), the GI50 (MDA-MB-435) was > 100 µM (inactive) and the GI50 (MOLT-4) was > 100 µM (inactive). The GI50 (NCI-H226) was 0.224 µM (active), the GI50 (NCI-H460) was > 100 µM (inactive) and the GI50 (NCI-H522) was > 100 µM (inactive). The GI50 (NCI/ADR-RES) was 13.8 µM (inactive), the GI50 (OVCAR-3) was > 100 µM (inactive) and the GI50 (OVCAR-5) was > 100 µM (inactive). The GI50 (OVCAR-8) was > 100 µM (inactive), the GI50 (PC-3) was 59 µM (inactive) and the GI50 (RPMI-8226) was > 100 µM (inactive). For the same molecule, the GI50 (SF-268) was > 100 µM (inactive), the GI50 (SF-295) was > 100 µM (inactive) and the GI50 (SF-539) was > 100 µM (inactive). The GI50 (SK-MEL-28) was > 100 µM (inactive), the GI50 (SK-MEL-2) was > 100 µM (inactive) and the GI50 (SK-OV-3) was 64 µM (inactive). The GI50 (SN12C) was > 100 µM (inactive), the GI50 (SNB-19) was > 100 µM (inactive) and the GI50 (SNB-75) was > 100 µM (inactive). For the same molecule, the GI50 (SR) was > 100 µM (inactive), the GI50 (SW-620) was > 100 µM (inactive) and the GI50 (T47D) was 36.1 µM (inactive). The GI50 (TK-10) was > 100 µM (inactive), the GI50 (U-251) was > 100 µM (inactive) and the GI50 (UACC-257) was > 100 µM (inactive). For the same molecule, the GI50 (UACC-62) was 30.8 µM (inactive) and the GI50 (UO-31) was 48.9 µM (inactive).
With `Nc1nc(Nc2ccccc2)sc1C(=O)c1ccc(Cl)cc1` the GI50 (A498) was 2.4 µM (inactive), the GI50 (CAKI-1) was 0.71 µM (active) and the GI50 (CCRF-CEM) was > 100 µM (inactive). For the same molecule, the GI50 (COLO 205) was > 100 µM (inactive), the GI50 (EKVX) was > 58.9 µM (inactive) and the GI50 (HCT-15) was greater than 100 µM. The GI50 (HL-60) was > 100 µM (inactive), the GI50 (HOP-62) was 2.88 µM (inactive) and the GI50 (HOP-92) was 3.39 µM (inactive). For the same molecule, the GI50 (HT-29) was > 100 µM (inactive), the GI50 (IGROV-1) was 3.72 µM (inactive) and the GI50 (K562) was > 100 µM (inactive). The GI50 (KM12) was > 100 µM (inactive), the GI50 (M14) was > 100 µM (inactive) and the GI50 (MCF7) was 4.39 µM (inactive). For the same molecule, the GI50 (MDA-MB-231) was 4.3 µM (inactive), the GI50 (MDA-MB-435) was 1.3 µM (inactive) and the GI50 (MOLT-4) was 8.99 µM (inactive). For the same molecule, the GI50 (NCI-H23) was 8.17 µM (inactive), the GI50 (OVCAR-4) was 0.748 µM (active) and the GI50 (OVCAR-5) was > 100 µM (inactive). For the same molecule, the GI50 (RXF 393) was 2.69 µM (inactive), the GI50 (SF-268) was 1.35 µM (inactive) and the GI50 (SF-295) was 3.7 µM (inactive). The GI50 (SF-539) was > 100 µM (inactive), the GI50 (SK-MEL-28) was > 100 µM (inactive) and the GI50 (SK-MEL-2) was 15.1 µM (inactive). The GI50 (SK-OV-3) was 2.46 µM (inactive), the GI50 (SNB-19) was 3.24 µM (inactive) and the GI50 (SNB-75) was 2.48 µM (inactive). For the same molecule, the GI50 (SR) was 1.36 µM (inactive), the GI50 (SW-620) was 4.13 µM (inactive) and the GI50 (T47D) was > 95.1 µM (inactive). The GI50 (TK-10) was 5.12 µM (inactive) and the GI50 (U-251) was 2.69 µM (inactive).
For `C=Cc1ccccc1C1(O)C=CC(OC)(OC)C=C1`, the GI50 (786-0) was 5.04 µM (inactive), the GI50 (A498) was 23.2 µM (inactive) and the GI50 (A549) was 17.3 µM (inactive). The GI50 (ACHN) was 12.4 µM (inactive), the GI50 (CAKI-1) was 5.68 µM (inactive) and the GI50 (CCRF-CEM) was 2.94 µM (inactive). For the same molecule, the GI50 (COLO 205) was 10.8 µM (inactive), the GI50 (DU-145) was 20.4 µM (inactive) and the GI50 (EKVX) was 14.7 µM (inactive). For the same molecule, the GI50 (HCC 2998) was 18.5 µM (inactive), the GI50 (HCT-116) was 3.4 µM (inactive) and the GI50 (HCT-15) was 3.53 µM. For the same molecule, the GI50 (HL-60) was 3.4 µM (inactive), the GI50 (HOP-62) was 6.31 µM (inactive) and the GI50 (HT-29) was 3.57 µM (inactive). The GI50 (Hs-578T) was 21.4 µM (inactive), the GI50 (IGROV-1) was 13.4 µM (inactive) and the GI50 (K562) was 7.6 µM (inactive). The GI50 (KM12) was 0.617 µM (active), the GI50 (M14) was 5.96 µM (inactive) and the GI50 (MCF7) was 2.94 µM (inactive). For the same molecule, the GI50 (MDA-MB-231) was 10.5 µM (inactive), the GI50 (MDA-MB-435) was 4.36 µM (inactive) and the GI50 (MOLT-4) was 4 µM (inactive). For the same molecule, the GI50 (Malme-3M) was 13.5 µM (inactive), the GI50 (NCI-H226) was 30.5 µM (inactive) and the GI50 (NCI-H23) was 4.46 µM (inactive). The GI50 (NCI-H460) was 8.57 µM (inactive), the GI50 (NCI-H522) was 7.26 µM (inactive) and the GI50 (NCI/ADR-RES) was 4.81 µM (inactive). The GI50 (OVCAR-3) was 3.05 µM (inactive), the GI50 (OVCAR-4) was 17.8 µM (inactive) and the GI50 (OVCAR-5) was 6.93 µM (inactive). For the same molecule, the GI50 (OVCAR-8) was 2.06 µM (inactive), the GI50 (PC-3) was 10.1 µM (inactive) and the GI50 (RPMI-8226) was 6.41 µM (inactive). For the same molecule, the GI50 (RXF 393) was 4.97 µM (inactive), the GI50 (SF-268) was 9.62 µM (inactive) and the GI50 (SF-295) was 17.8 µM (inactive). For the same molecule, the GI50 (SF-539) was 2.72 µM (inactive), the GI50 (SK-MEL-28) was 6.89 µM (inactive) and the GI50 (SK-MEL-2) was 17.3 µM (inactive). The GI50 (SK-MEL-5) was 13.8 µM (inactive), the GI50 (SK-OV-3) was 13.9 µM (inactive) and the GI50 (SN12C) was 8.24 µM (inactive). The GI50 (SNB-19) was 15.8 µM (inactive), the GI50 (SNB-75) was 18.8 µM (inactive) and the GI50 (SR) was 2.65 µM (inactive). For the same molecule, the GI50 (SW-620) was 3.8 µM (inactive), the GI50 (T47D) was 22.2 µM (inactive) and the GI50 (TK-10) was 3.25 µM (inactive). For the same molecule, the GI50 (U-251) was 3.66 µM (inactive), the GI50 (UACC-257) was 11.8 µM (inactive) and the GI50 (UACC-62) was 4.51 µM (inactive). The GI50 (UO-31) was 7.24 µM (inactive).
